Assay results taken from patent US20060252807A1, “Novel ortho-terphenyl inhibitors of p38 kinase and methods of treating inflammatory disorders” (Kalypsys, Inc., priority 2005, published 2006).

What follows are molecules tested against T1, active p38 alpha enzyme (Upstate Biotechnology) (Homo sapiens, UniProt Q16539) (assay: p38α biochemical assay (ATP turnover, luminescent detection, Cambrex PKlight)). Conditions: p38α kinase; Table 1 Biological Activity.
T1 construct: purchased Upstate Biotechnology
Outline: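 Active human p38α was incubated with full-length MapkapK2 protein as substrate and 1.4 uM ATP (final) for 2 hours at 30C. Buffer: 200 mM Tris, 100 mM MgCl2, 1.5 mM EGTA, 4 mM CaCl2, 20 mM MOPS, 1 mM EDTA, 1% glycerol, 0.1% β-mercaptoethanol, 1 mg/ml BSA. Total ATP turnover read by luminescence.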

T1 sequence (Q16539 whole entry): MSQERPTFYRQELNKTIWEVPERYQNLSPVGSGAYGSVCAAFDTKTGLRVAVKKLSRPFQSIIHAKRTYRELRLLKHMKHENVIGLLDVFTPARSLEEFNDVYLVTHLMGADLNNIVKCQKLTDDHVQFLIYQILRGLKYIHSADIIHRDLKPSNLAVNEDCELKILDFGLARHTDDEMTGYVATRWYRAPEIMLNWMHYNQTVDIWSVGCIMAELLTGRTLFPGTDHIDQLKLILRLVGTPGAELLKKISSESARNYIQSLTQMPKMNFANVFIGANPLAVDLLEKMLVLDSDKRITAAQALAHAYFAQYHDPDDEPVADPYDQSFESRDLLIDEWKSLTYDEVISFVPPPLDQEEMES

Compound	IC50
Cc1nc(-c2ccc(F)cc2)c(-c2nc(C(=O)NC3CC(C)(C)NC(C)(C)C3)cs2)s1 [Example 1805]	> 1000 nM
CCN(CC)CCCC(C)NC(=O)c1csc(-c2sc(C)nc2-c2ccc(F)cc2)n1 (stereo not shown) [Example 1806]	> 1000 nM
Cc1nc(-c2ccc(F)cc2)c(-c2nc(C(=O)NCCNC(=O)OC(C)(C)C)cs2)s1 [Example 1808]	≤ 1000 nM
Cc1nc(-c2ccc(F)cc2)c(-c2nc(C(=O)NCC3(O)CCCCC3)cs2)s1 [Example 1812]	≤ 1000 nM
CCOC(=O)N1CCC(NC(=O)c2csc(-c3sc(C)nc3-c3ccc(F)cc3)n2)CC1 [Example 1816]	> 1000 nM
Cc1nc(-c2ccc(F)cc2)c(-c2nc(C(=O)NCCCNC(=O)OC(C)(C)C)cs2)s1 [Example 1817]	≤ 1000 nM
Cc1nc(-c2ccc(F)cc2)c(-c2nc(C(=O)NC3CCN(Cc4ccccc4)C3)cs2)s1 (stereo not shown) [Example 1822]	≤ 1000 nM
Cc1nc(-c2ccc(F)cc2)c(-c2nc(C(=O)NC3CCN(Cc4ccccc4)CC3)cs2)s1 [Example 1826]	> 1000 nM
Cc1nc(-c2ccc(F)cc2)c(-c2nc(C(=O)N(C)C)cs2)s1 [Example 1834]	> 1000 nM
CCN(C)C(=O)c1csc(-c2sc(C)nc2-c2ccc(F)cc2)n1 [Example 1835]	> 1000 nM
C#CCN(C)C(=O)c1csc(-c2sc(C)nc2-c2ccc(F)cc2)n1 [Example 1836]	> 1000 nM
CCN(CC)C(=O)c1csc(-c2sc(C)nc2-c2ccc(F)cc2)n1 [Example 1837]	> 1000 nM
CCCN(C)C(=O)c1csc(-c2sc(C)nc2-c2ccc(F)cc2)n1 [Example 1838]	> 1000 nM
Cc1nc(-c2ccc(F)cc2)c(-c2nc(C(=O)N(C)CCO)cs2)s1 [Example 1839]	> 1000 nM
Cc1nc(-c2ccc(F)cc2)c(-c2nc(C(=O)N(C)CCC#N)cs2)s1 [Example 1840]	> 1000 nM
Cc1nc(-c2ccc(F)cc2)c(-c2nc(C(=O)N3CCOCC3)cs2)s1 [Example 1841]	> 1000 nM
Cc1nc(-c2ccc(F)cc2)c(-c2nc(C(=O)N(C)CC(C)C)cs2)s1 [Example 1842]	> 1000 nM
CCN(C(=O)c1csc(-c2sc(C)nc2-c2ccc(F)cc2)n1)C(C)C [Example 1843]	> 1000 nM
CCCCN(C)C(=O)c1csc(-c2sc(C)nc2-c2ccc(F)cc2)n1 [Example 1844]	> 1000 nM
CCN(CCO)C(=O)c1csc(-c2sc(C)nc2-c2ccc(F)cc2)n1 [Example 1845]	> 1000 nM
Cc1nc(-c2ccc(F)cc2)c(-c2nc(C(=O)N3CCSC3)cs2)s1 [Example 1846]	> 1000 nM
Cc1nc(-c2ccc(F)cc2)c(-c2nc(C(=O)N3CCCCC3C)cs2)s1 (stereo not shown) [Example 1847]	> 1000 nM
Cc1nc(-c2ccc(F)cc2)c(-c2nc(C(=O)N3CCC(C)CC3)cs2)s1 [Example 1848]	> 1000 nM
Cc1nc(-c2ccc(F)cc2)c(-c2nc(C(=O)N3CCN(C)CC3)cs2)s1 [Example 1849]	> 1000 nM
Cc1nc(-c2ccc(F)cc2)c(-c2nc(C(=O)N3CCCC3CO)cs2)s1 (stereo not shown) [Example 1850]	≤ 1000 nM
Cc1nc(-c2ccc(F)cc2)c(-c2nc(C(=O)N3CCC[C@@H]3CO)cs2)s1 [Example 1851]	> 1000 nM
CCCCN(CC)C(=O)c1csc(-c2sc(C)nc2-c2ccc(F)cc2)n1 [Example 1852]	> 1000 nM
CCCN(CCC)C(=O)c1csc(-c2sc(C)nc2-c2ccc(F)cc2)n1 [Example 1853]	> 1000 nM

Results, then the molecule that gave them:

IC50	Compound
> 1000 nM	Cc1nc(-c2ccc(F)cc2)c(-c2nc(C(=O)NCc3ccc(C(C)C)cc3)cs2)s1 [Example 1795]
≤ 1000 nM	Cc1nc(-c2ccc(F)cc2)c(-c2nc(C(=O)NCc3ccc4c(c3)OCO4)cs2)s1 [Example 1796]
≤ 1000 nM	COc1cccc(CCNC(=O)c2csc(-c3sc(C)nc3-c3ccc(F)cc3)n2)c1 [Example 1797]
≤ 1000 nM	Cc1nc(-c2ccc(F)cc2)c(-c2nc(C(=O)N[C@H](CO)Cc3ccccc3)cs2)s1 [Example 1798]
≤ 1000 nM	COc1ccc(CCNC(=O)c2csc(-c3sc(C)nc3-c3ccc(F)cc3)n2)cc1 [Example 1799]
≤ 1000 nM	COc1ccccc1CCNC(=O)c1csc(-c2sc(C)nc2-c2ccc(F)cc2)n1 [Example 1800]
≤ 1000 nM	CCOc1ccccc1CNC(=O)c1csc(-c2sc(C)nc2-c2ccc(F)cc2)n1 [Example 1801]
≤ 1000 nM	Cc1nc(-c2ccc(F)cc2)c(-c2nc(C(=O)NCCc3ccccc3Cl)cs2)s1 [Example 1802]
≤ 1000 nM	Cc1nc(-c2ccc(F)cc2)c(-c2nc(C(=O)NCCc3ccc(Cl)cc3)cs2)s1 [Example 1803]
≤ 1000 nM	Cc1nc(-c2ccc(F)cc2)c(-c2nc(C(=O)NCCc3cccc(Cl)c3)cs2)s1 [Example 1804]
≤ 1000 nM	Cc1nc(-c2ccc(F)cc2)c(-c2nc(C(=O)NCc3ccc(F)c(Cl)c3)cs2)s1 [Example 1807]
≤ 1000 nM	Cc1nc(-c2ccc(F)cc2)c(-c2nc(C(=O)NCCc3c[nH]c4ccccc34)cs2)s1 [Example 1809]
> 1000 nM	Cc1nc(-c2ccc(F)cc2)c(-c2nc(C(=O)NCc3ccc(C(C)(C)C)cc3)cs2)s1 [Example 1810]
≤ 1000 nM	Cc1nc(-c2ccc(F)cc2)c(-c2nc(C(=O)NCCCN(C)c3ccccc3)cs2)s1 [Example 1811]
≤ 1000 nM	COc1cc(CNC(=O)c2csc(-c3sc(C)nc3-c3ccc(F)cc3)n2)cc(OC)c1 [Example 1813]
≤ 1000 nM	COc1ccc(CNC(=O)c2csc(-c3sc(C)nc3-c3ccc(F)cc3)n2)cc1OC [Example 1814]
> 1000 nM	Cc1nc(-c2ccc(F)cc2)c(-c2nc(C(=O)NCC(=O)c3ccccc3)cs2)s1 [Example 1815]
≤ 1000 nM	Cc1nc(-c2ccc(F)cc2)c(-c2nc(C(=O)NCc3ccc(C(F)(F)F)cc3)cs2)s1 [Example 1818]
≤ 1000 nM	Cc1nc(-c2ccc(F)cc2)c(-c2nc(C(=O)NCc3cccc(C(F)(F)F)c3)cs2)s1 [Example 1819]
≤ 1000 nM	Cc1nc(-c2ccc(F)cc2)c(-c2nc(C(=O)NCc3ccc(Cl)c(Cl)c3)cs2)s1 [Example 1820]
≤ 1000 nM	Cc1nc(-c2ccc(F)cc2)c(-c2nc(C(=O)NCc3ccc(Cl)cc3Cl)cs2)s1 [Example 1821]
≤ 1000 nM	COc1ccc(OC)c(CCNC(=O)c2csc(-c3sc(C)nc3-c3ccc(F)cc3)n2)c1 [Example 1823]
≤ 1000 nM	Cc1nc(-c2ccc(F)cc2)c(-c2nc(C(=O)NCc3ccc(N(C)C)cc3)cs2)s1 [Example 1824]
≤ 1000 nM	COc1ccc(CNC(=O)c2csc(-c3sc(C)nc3-c3ccc(F)cc3)n2)cc1O [Example 1825]
≤ 1000 nM	Cc1nc(-c2ccc(F)cc2)c(-c2nc(C(=O)NCc3ccccc3OC(F)(F)F)cs2)s1 [Example 1827]
≤ 1000 nM	Cc1nc(-c2ccc(F)cc2)c(-c2nc(C(=O)NCCc3ccc(S(N)(=O)=O)cc3)cs2)s1 [Example 1828]
> 1000 nM	COc1ccc(C(=O)CNC(=O)c2csc(-c3sc(C)nc3-c3ccc(F)cc3)n2)cc1 [Example 1829]
≤ 1000 nM	Cc1nc(-c2ccc(F)cc2)c(-c2nc(C(=O)NCCc3ccc4c(c3)OCO4)cs2)s1 [Example 1830]
> 1000 nM	Cc1nc(-c2ccc(F)cc2)c(-c2nc(C(=O)NCCC(c3ccccc3)c3ccccc3)cs2)s1 [Example 1831]
≤ 1000 nM	Cc1ccc(S(=O)(=O)NCCNC(=O)c2csc(-c3sc(C)nc3-c3ccc(F)cc3)n2)cc1 [Example 1832]
